# Entries after “also recorded” stand apart in the source; their conditions may differ.
# Columns and labels:
# [1] = system: human peripheral blood mixed lymphocytes; assay: IFN-γ production in mixed lymphocyte culture (MLC) reaction; type: cell-based; conditions: 120 h
# Description: Effect of icariside I on promotion of γ-interferon (interferon-gamma, IFN-γ) production by human peripheral blood mixed lymphocytes during culture (an experimental model mimicking enhancing immunity in human body).
# (1) Preparation of human peripheral blood mononuclear cells (PBMCs): following the method in Example 5 (2), peripheral blood PBMCs from two normal human were prepared.
# Cell concentrations of freshly isolated peripheral blood mononuclear cells (PBMCs) were adjusted to […] with RPMI1640 complete medium. Then, lymphocytes from two healthy human with equal volumes were mixed to maintain a total cell concentration of […]. Different concentrations (in a gradient) of or no icariside I were added thereto (with final concentration of 100 ng/ml, 1000 ng/ml) followed by fully mixing. Then the cells after stimulation were seeded and cultured in a 96-well round-bottom culture plate. The cell concentration per well was maintained at 2×10^5/ml (200 μl/well) and was incubated at 37° C. with 5% CO2 for 120 h in an incubator. The levels of cytokine IFN-γ were detected.
# According to the method stated in Example 5 (4), the γ-interferon generated from human peripheral blood mixed lymphocyte culture (MLC) was detected.
# Equal cell concentrations of lymphocytes from healthy human were mixed cultured for five days (120 h). The pharmaceutical icariside I was added (in a gradient of different pharmaceutical concentrations) or not added. […] Among them, the human lymphocyte A control is a group of samples containing only one kind of human lymphocyte, while human lymphocyte B control is a group of samples containing two kinds of human lymphocytes, that is, a control group in which two kinds of human lymphocytes were mixed for culture without adding icariside I. The concentrations of icariside I added were 0.1 and 1 μg/ml respectively. *P<0.05; **P<0.01. […]
# Cell concentrations of freshly isolated peripheral blood mononuclear cells (PBMCs) were adjusted to 5×10^5/ml with RPMI1640 complete medium. […] The level of cytokine IFN-γ produced was then detected.
# [2] = system: normal human peripheral blood mononuclear cells (PBMCs); assay: IFN-γ production by PBMCs stimulated with Anti-CD3 (ELISA); type: cell-based; conditions: PBMCs treated with anti-CD3 (1 μg/ml); icariside I 1, 10, 100 ng/ml; 12-48 h; time and dose dependent
# Description: Effect of icariside I on promoting normal human peripheral blood mononuclear cells (PBMCs subjected to mAb treatment) to produce γ-interferon (interferon-gamma, IFN-γ) (an experimental model mimicking enhancing immunity in human body).
# (1) Preparation of icariside I solution for the test. 10 mg icariside I was dissolved in 1 ml DMSO (with initial concentration of 10 mg/ml). The solution was then transferred into small vials and stored in a freezer at −80° C. for future use.
# The whole blood samples were drawn from peripheral vein of healthy volunteers. Heparin (blood:heparin=10 ml: 80 μl) was used for anticoagulation. Then, it is diluted with equal volume of Hank's solution. The diluted blood samples were slowly laid on the Ficoll separation solution (Ficoll to diluted blood ratio is 3:4) followed by Ficoll density gradient centrifugation (22° C. 2200 r/min, 20 min). After centrifugation, samples were divided into three layers in the tube. At the interface between the top and middle layers, there was a narrow band which is a mononuclear cell-based yellow-white cloud layer. The peripheral blood mononuclear cells (PBMCs) were drawn and transferred into another centrifuge tube with a pipette. […] The mononuclear cells were counted with trypan blue solution. […]
# The collected cell culture supernatants with different culture time were detected with ELISA to measure the amount of cytokine IFN-γ produced. […]
compound,measurement,setting,value
COc1ccc(-c2oc3c(CC=C(C)C)c(O[C@@H]4O[C@H](CO)[C@@H](O)[C@H](O)[C@H]4O)cc(O)c3c(=O)c2O)cc1 [icariside I],promotion of generation of IFN-γ in the mixed lymphocyte culture,"[1]; 100 and 1000 ng/ml, dose dependent",up to 300%
same,ability to promote human γ-interferon production in mixed lymphocyte culture,[1]; final concentration 1000 ng/ml,best ability
same,IFN-γ level produced by PBMCs,[2],significantly enhanced; also recorded: significantly increased
